Reference: article PMC4986129, “A Peroxidase-linked Spectrophotometric Assay for the Detection of Monoamine Oxidase Inhibitors” (Iranian Journal of Pharmaceutical Research : IJPR, 2016)

Target: T1, MAO-B (Rattus norvegicus, UniProt P19643)
T1 construct: gene Maob
T1 sequence (P19643 2-520): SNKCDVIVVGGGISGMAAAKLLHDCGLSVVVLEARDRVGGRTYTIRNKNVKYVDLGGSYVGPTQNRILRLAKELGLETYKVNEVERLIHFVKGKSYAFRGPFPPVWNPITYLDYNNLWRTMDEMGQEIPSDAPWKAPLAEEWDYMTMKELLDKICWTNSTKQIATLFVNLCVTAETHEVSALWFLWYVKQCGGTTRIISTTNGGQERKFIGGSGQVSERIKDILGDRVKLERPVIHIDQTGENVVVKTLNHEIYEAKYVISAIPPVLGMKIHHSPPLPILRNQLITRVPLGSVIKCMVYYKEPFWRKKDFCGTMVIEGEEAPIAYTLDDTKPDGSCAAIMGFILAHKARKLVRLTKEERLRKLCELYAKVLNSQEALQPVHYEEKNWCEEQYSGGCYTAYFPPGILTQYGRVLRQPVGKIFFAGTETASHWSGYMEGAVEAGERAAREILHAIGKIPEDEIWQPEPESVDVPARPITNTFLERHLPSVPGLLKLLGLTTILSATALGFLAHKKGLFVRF
Assay: peroxidase-linked spectrophotometric assay, crude rat liver mitochondria with MAO-A blocked by clorgyline
Type: biochemical

## C#CCN(C)Cc1ccccc1 [pargyline]
  IC50: 13.4 ± 0.16 nM
